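All cell lines were grown in 96-well plates and treated with compound for 48 hours. Abbreviation: GI50, concentration required for 50% inhibition of growth. At the TGI there is no net growth.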
Key:
Test in all cases: DTP human tumour cell line panel, 48 h
SF-295 CNS = test system: SF-295 CNS
UO-31 renal = test system: UO-31 renal
SK-MEL-2 melanoma = test system: SK-MEL-2 melanoma
SNB-78 CNS = test system: SNB-78 CNS
COLO 205 colon = test system: COLO 205 colon
LOX IMVI melanoma = test system: LOX IMVI melanoma
DMS 273 small cell lung = test system: DMS 273 small cell lung
HCC-2998 colon = test system: HCC-2998 colon
OVCAR-8 ovarian = test system: OVCAR-8 ovarian
NCI-H226 lung = test system: NCI-H226 lung
HOP-92 NSCLC = test system: HOP-92 NSCLC
MOLT-4 leukemia = test system: MOLT-4 leukemia
OVCAR-3 ovarian = test system: OVCAR-3 ovarian
K-562 leukemia = test system: K-562 leukemia
KM12 colon = test system: KM12 colon
SF-539 CNS = test system: SF-539 CNS
SK-MEL-28 melanoma = test system: SK-MEL-28 melanoma
OVCAR-4 ovarian = test system: OVCAR-4 ovarian
CCRF-CEM leukemia = test system: CCRF-CEM leukemia
IGROV1 ovarian = test system: IGROV1 ovarian
UACC-62 melanoma = test system: UACC-62 melanoma
SK-OV-3 ovarian = test system: SK-OV-3 ovarian
NCI-H522 lung = test system: NCI-H522 lung
SNB-19 CNS = test system: SNB-19 CNS
MALME-3M melanoma = test system: MALME-3M melanoma
NCI-H460 lung = test system: NCI-H460 lung
786-0 renal = test system: 786-0 renal
SK-MEL-5 melanoma = test system: SK-MEL-5 melanoma
KM20L2 colon = test system: KM20L2 colon
TK-10 renal = test system: TK-10 renal
ACHN renal = test system: ACHN renal
HOP-18 NSCLC = test system: HOP-18 NSCLC
U251 CNS = test system: U251 CNS
SNB-75 CNS = test system: SNB-75 CNS
LXFL 529 NSCLC = test system: LXFL 529 NSCLC
DLD-1 colon = test system: DLD-1 colon
UACC-257 melanoma = test system: UACC-257 melanoma
RPMI-8226 leukemia = test system: RPMI-8226 leukemia
M14 melanoma = test system: M14 melanoma
HCT-116 colon = test system: HCT-116 colon
HT29 colon = test system: HT29 colon
CAKI-1 renal = test system: CAKI-1 renal
SN12C renal = test system: SN12C renal
HCT-15 colon = test system: HCT-15 colon
A498 renal = test system: A498 renal
RXF 393 renal = test system: RXF 393 renal
HOP-62 NSCLC = test system: HOP-62 NSCLC
HL-60(TB) leukemia = test system: HL-60(TB) leukemia
NCI-H23 lung = test system: NCI-H23 lung
SW-620 colon = test system: SW-620 colon
A549 NSCLC = test system: A549 NSCLC
SF-268 CNS = test system: SF-268 CNS

## N.N.O=P([O-])([O-])C1(P(=O)([O-])[O-])CCCCCN1.[Pt+2]
SF-295 CNS
  GI50: > 100 µM
  TGI: > 100 µM
UO-31 renal
  GI50: > 100 µM
  TGI: > 100 µM
SK-MEL-2 melanoma
  GI50: > 100 µM
  TGI: > 100 µM
SNB-78 CNS
  GI50: 78.4 µM
  TGI: > 100 µM
COLO 205 colon
  GI50: > 100 µM
  TGI: > 100 µM
LOX IMVI melanoma
  GI50: > 100 µM
  TGI: > 100 µM
DMS 273 small cell lung
  GI50: > 100 µM
  TGI: > 100 µM
HCC-2998 colon
  GI50: > 100 µM
  TGI: > 100 µM
OVCAR-8 ovarian
  GI50: > 100 µM
  TGI: > 100 µM
NCI-H226 lung
  GI50: > 100 µM
  TGI: > 100 µM
HOP-92 NSCLC
  GI50: > 100 µM
  TGI: > 100 µM
MOLT-4 leukemia
  GI50: > 100 µM
  TGI: > 100 µM
OVCAR-3 ovarian
  GI50: > 100 µM
  TGI: > 100 µM
K-562 leukemia
  GI50: > 100 µM
  TGI: > 100 µM
KM12 colon
  GI50: > 100 µM
  TGI: > 100 µM
SF-539 CNS
  GI50: 31.9 µM
  TGI: > 100 µM
SK-MEL-28 melanoma
  GI50: > 100 µM
  TGI: > 100 µM
OVCAR-4 ovarian
  GI50: > 100 µM
  TGI: > 100 µM
CCRF-CEM leukemia
  GI50: > 100 µM
  TGI: > 100 µM
IGROV1 ovarian
  GI50: > 100 µM
  TGI: > 100 µM
UACC-62 melanoma
  GI50: > 100 µM
  TGI: > 100 µM
SK-OV-3 ovarian
  GI50: > 100 µM
  TGI: > 100 µM
NCI-H522 lung
  GI50: > 100 µM
  TGI: > 100 µM
SNB-19 CNS
  GI50: > 100 µM
  TGI: > 100 µM
MALME-3M melanoma
  GI50: > 100 µM
  TGI: > 100 µM
NCI-H460 lung
  GI50: > 100 µM
  TGI: > 100 µM
786-0 renal
  GI50: > 100 µM
  TGI: > 100 µM
SK-MEL-5 melanoma
  GI50: > 100 µM
  TGI: > 100 µM
KM20L2 colon
  GI50: > 100 µM
  TGI: > 100 µM
TK-10 renal
  GI50: > 100 µM
  TGI: > 100 µM
ACHN renal
  GI50: > 100 µM
  TGI: > 100 µM
HOP-18 NSCLC
  GI50: > 100 µM
  TGI: > 100 µM
U251 CNS
  GI50: 43.5 µM
  TGI: > 100 µM
SNB-75 CNS
  GI50: 29.5 µM
  TGI: 88.1 µM
LXFL 529 NSCLC
  GI50: > 100 µM
  TGI: > 100 µM
DLD-1 colon
  GI50: > 100 µM
  TGI: > 100 µM
UACC-257 melanoma
  GI50: > 100 µM
  TGI: > 100 µM
RPMI-8226 leukemia
  GI50: > 100 µM
  TGI: > 100 µM
M14 melanoma
  GI50: > 100 µM
  TGI: > 100 µM
HCT-116 colon
  GI50: > 100 µM
  TGI: > 100 µM
HT29 colon
  GI50: > 100 µM
  TGI: > 100 µM
CAKI-1 renal
  GI50: > 100 µM
  TGI: > 100 µM
SN12C renal
  GI50: > 100 µM
  TGI: > 100 µM
HCT-15 colon
  GI50: > 100 µM
  TGI: > 100 µM
A498 renal
  GI50: > 100 µM
  TGI: > 100 µM
RXF 393 renal
  GI50: 42.3 µM
  TGI: > 100 µM
HOP-62 NSCLC
  GI50: > 100 µM
  TGI: > 100 µM
HL-60(TB) leukemia
  GI50: > 100 µM
  TGI: > 100 µM
NCI-H23 lung
  GI50: > 100 µM
  TGI: > 100 µM
SW-620 colon
  GI50: > 100 µM
  TGI: > 100 µM
A549 NSCLC
  GI50: > 100 µM
  TGI: > 100 µM
SF-268 CNS
  GI50: 76.6 µM
  TGI: > 100 µM
